Experimental data as given in paper PMC3884847 (Journal of Medicinal Chemistry, 2013).
≈ marks a conversion by molar mass, not a printed value. Where “and” joins values, the source holds several entries; their conditions need not be identical. Identical values can stand only once. Like-named read-outs stand apart in the source and are kept apart here.

Key:
T. cruzi (Tulahuen TcVI) [1] = test: Initial PK/PD efficacy: 10-day once daily oral dosing of T. cruzi infected mice; format: in vivo, Swiss mice; conditions: 20 mg/kg oral once daily for up to 10 days
[2] = human liver microsomes
T. cruzi (Tulahuen TcVI) [3] = system: T. cruzi (Tulahuen TcVI)
T. cruzi [4] = conditions: cited from earlier work
in vitro = conditions: rat, L6 IC50 (cytotoxicity), L6 cells
[5] = system: T. cruzi (Tulahuen strain (Tc VI) transfected with β-galactosidase), amastigote form; test: microbe, parasite or virus in culture; conditions: Trypanosoma cruzi
T. cruzi (Tulahuen TcVI) [6] = conditions: once daily oral 20 mg/kg for 20 days, cited from earlier work
physchem = conditions: pH 2
T. cruzi [7] = conditions: twice daily treatment for 30 days, acute and chronic models; cited from earlier work
[8] = 20 mg/kg oral once daily 20 days
[9] = 20 mg/kg oral once daily 20 days, day 8 = first compound dose
[10] = 20 mg/kg oral once daily 20 days, end after three cycles of immunosuppression
[11] = 20 mg/kg oral once daily 20 days, first day of nontreatment period
[12] = 20 mg/kg oral once daily 20 days, last day of nontreatment period
[13] = 20 mg/kg, PCR of blood, spleen, heart, skeletal muscle, colon
[14] = 100 mg/kg oral once daily 20 days
[15] = 5 mg/kg oral once daily 20 days
[16] = 10 mg/kg oral once daily 20 days

Q: For `Cc1cc(C(=O)NC2CCN(C(c3ccc(C#N)cc3)c3cccnc3)CC2)n(C)n1` (centres unmarked) [compound 50], which “parasites cleared from blood during 10-day dosing?” value (shortened to “parasites cleared”) (T. cruzi (Tulahuen TcVI) [1]) is on record?
A: The value was “no”.

Q: With `Cc1ncsc1C(=O)N1CCC(NC(c2ccc(C(F)(F)F)cc2)c2cccnc2)CC1` (centres unmarked) [compound 51] as the molecule, how does the “parasites cleared” value (T. cruzi (Tulahuen TcVI) [1]) read?
A: The value was “no”.

Q: For `N#Cc1ccc(N(c2cccnc2)C2CCN(c3ccc(C(F)(F)F)cc3)CC2)cc1` [compound 31], which “predicted human EH” value ([2]; Table 1) is on record?
A: Its value is 0.69.

Q: With `FC(F)(F)c1ccc(N(c2cccnc2)C2CCN(c3ccc(C(F)(F)F)cn3)CC2)cc1` [compound 6, N-[4-(Trifluoromethyl)phenyl]-N-(1-[5-(trifluoromethyl)pyridin-2-yl]piperidin-4-yl)pyridin-3-amine] as the molecule, how does the “parasites cleared” value (T. cruzi (Tulahuen TcVI) [1]) read?
A: Its value is “yes”.

Q: And the “predicted human EH” value ([2]; Table 1)?
A: Its value is 0.68.

Q: What about the “mice microscopically parasite free following three cycles of immunosuppression” value (T. cruzi (Tulahuen TcVI) [3]; [8]) of the same molecule?
A: The value was 3 out of 4.

Q: And the “mice parasite free at the end of dosing” value (T. cruzi (Tulahuen TcVI) [3]; [8])?
A: The value was 4 out of 5.

Q: And the “mouse survival after infection, day 8” value (T. cruzi (Tulahuen TcVI) [3]; [9])?
A: The value was 5 of 5.

Q: And the “mouse survival after infection, day 58” value (T. cruzi (Tulahuen TcVI) [3]; [10])?
A: The value was 3 of 5.

Q: And the “mouse survival after infection, day 28” value (T. cruzi (Tulahuen TcVI) [3]; [11])?
A: Its value is 4 of 5.

Q: And the “mouse survival after infection, day 37” value (T. cruzi (Tulahuen TcVI) [3]; [12])?
A: Its value is 4 of 5.

Q: What about the “–ve PCR” value (T. cruzi (Tulahuen TcVI) [3]; [13]) of the same molecule?
A: The value was 3 of 3.

Q: And the parasitological cure (T. cruzi (Tulahuen TcVI) [3]; lower doses, 5 and 10 mg/kg, data not shown)?
A: Its parasitological cure is “parasitological cure was not observed”.

Q: Which “parasites in blood during the immunosuppression phase” value (T. cruzi (Tulahuen TcVI) [3]; 100 mg/kg oral) does the source give for `O=C(Cn1ccnc1[N+](=O)[O-])NCc1ccccc1` [benznidazole, reference compound] here?
A: Its value is “re-emergence of parasites in blood”.

Q: And the “mouse survival after infection, day 8” value (T. cruzi (Tulahuen TcVI) [3]; [14])?
A: Its value is 5 of 5.

Q: And the “mouse survival after infection, day 28” value (T. cruzi (Tulahuen TcVI) [3]; [14])?
A: Its value is 4 of 5.

Q: And the “mouse survival after infection, day 37” value (T. cruzi (Tulahuen TcVI) [3]; [14])?
A: Its value is 4 of 5.

Q: And the “mouse survival after infection, day 58” value (T. cruzi (Tulahuen TcVI) [3]; [14])?
A: Its value is 0 of 5.

Q: And the “adult patients experiencing serious adverse reactions” value (T. cruzi [4])?
A: Its value is “up to 30%”.

Q: And the “cure rates, acute stage of the infection” value (T. cruzi [4]; patients)?
A: The value was “up to 60%”.

Q: And the IC50 (in vitro)?
A: The IC50 was greater than 100000 nM.

Q: What about the IC50 ([5]; read-out: Tc IC50) of the same molecule?
A: The IC50 was 1500 nM.

Q: For `N#Cc1ccccc1N1CCC(N(c2ccc(C(F)(F)F)cc2)c2cccnc2)CC1` [compound 25], which “predicted human EH” value ([2]; Table 1) is on record?
A: The value was 0.88.

Q: For `CC(C)(C)CC(=O)N1CCC(N(c2ccc(Cl)cc2)c2cccnc2)CC1` [compound 16], which “predicted human EH” value ([2]; Table 1) is on record?
A: Its value is 0.91.

Q: With `Cc1ccccc1CN1CCC(N(c2ccc(C(F)(F)F)cc2)c2cccnc2)CC1` [compound 22] as the molecule, how does the “predicted human EH” value ([2]; Table 1) read?
A: The value was 0.87.

Q: For `O=C([C@@H](c1ccc(Cl)cc1)c1cccnc1)N1CCN(c2ccc(C(F)(F)F)cc2)CC1` [(S)-7, 2-(4-Chlorophenyl)-1-{4-[4-(trifluoromethyl)phenyl]piperazin-1-yl}-2-(pyridin-3-yl)ethanone], which “predicted human EH” value ([2]; Table 2) is on record?
A: Its value is 0.53.

Q: What about the “cure by PCR analyses of organs and blood” value (T. cruzi (Tulahuen TcVI) [3]; 5 mg/kg daily oral) of the same molecule?
A: The value was “cure had not been achieved”.

Q: And the “mouse survival after infection, day 8” value (T. cruzi (Tulahuen TcVI) [3]; [15])?
A: The value was 4 of 4.

Q: What about the “mouse survival after infection, day 28” value (T. cruzi (Tulahuen TcVI) [3]; [15]) of the same molecule?
A: The value was 4 of 4.

Q: What about the “mouse survival after infection, day 37” value (T. cruzi (Tulahuen TcVI) [3]; [15]) of the same molecule?
A: The value was 4 of 4.

Q: What about the “mouse survival after infection, day 58” value (T. cruzi (Tulahuen TcVI) [3]; [15]) of the same molecule?
A: The value was 3 out of 4 and 3 of 4.

Q: What about the “–ve PCR” value (T. cruzi (Tulahuen TcVI) [3]; 5 mg/kg, PCR of blood and tissues) of the same molecule?
A: The value was 0 of 3.

Q: And the “mouse survival after infection, day 8” value (T. cruzi (Tulahuen TcVI) [3]; [16])?
A: Its value is 4 of 4.

Q: What about the “mouse survival after infection, day 28” value (T. cruzi (Tulahuen TcVI) [3]; [16]) of the same molecule?
A: The value was 4 of 4.

Q: And the “mouse survival after infection, day 37” value (T. cruzi (Tulahuen TcVI) [3]; [16])?
A: Its value is 4 of 4.

Q: What about the “mouse survival after infection, day 58” value (T. cruzi (Tulahuen TcVI) [3]; [16]) of the same molecule?
A: The value was 3 of 4.

Q: What about the “–ve PCR” value (T. cruzi (Tulahuen TcVI) [3]; 10 mg/kg, PCR of blood and tissues) of the same molecule?
A: Its value is 2 out of the 3 and 2 of 3.

Q: With `FC(F)(F)c1ccc(N(c2cncnc2)C2CCN(c3ccc(C(F)(F)F)cn3)CC2)cc1` [compound 34] as the molecule, how does the “predicted human EH” value ([2]; Table 1) read?
A: Its value is 0.63.

Q: Which “parasites cleared” value (T. cruzi (Tulahuen TcVI) [1]) does the source give for `N#Cc1ccc(C(O)(c2ccc(C(F)(F)F)cc2)c2cccnc2)cc1` (centres unmarked) [compound 2, 4-(hydroxy(pyridin-3-yl)[4-(trifluoromethyl)phenyl]methyl)benzonitrile] here?
A: Its value is “yes”.

Q: And the parasitological cure (T. cruzi (Tulahuen TcVI) [6]; three cycles of immunosuppression)?
A: Its parasitological cure is “had not achieved a parasitological cure”.

Q: What about the IC50 [5] of the same molecule?
A: The IC50 was 12 nM.

Q: With `O=C([C@H](c1ccc(Cl)cc1)c1cccnc1)N1CCN(c2ccc(C(F)(F)F)cc2)CC1` [(R)-7, 2-(4-Chlorophenyl)-1-{4-[4-(trifluoromethyl)phenyl]piperazin-1-yl}-2-(pyridin-3-yl)ethanone] as the molecule, how does the “predicted human EH” value ([2]; Table 2) read?
A: The value was 0.61.

Q: Which “predicted human EH” value ([2]; Table 2) does the source give for `N#Cc1ccc(C(C(=O)N2CCN(c3ccc(C(F)(F)F)cc3)CC2)c2cccnc2)cc1` (centres unmarked) [compound 40] here?
A: Its value is 0.70.

Q: Which “parasites cleared” value (T. cruzi (Tulahuen TcVI) [1]) does the source give for `N#Cc1ccc(C(c2cccnc2)N2CCC(NC(=O)c3ccccc3)CC2)cc1` (centres unmarked) [compound 47] here?
A: Its value is “no”.

Q: For `N#Cc1cccc(N2CCC(NC(c3cccnc3)c3ccc(Cl)cc3F)CC2)c1` (centres unmarked) [compound 48], which “parasites cleared” value (T. cruzi (Tulahuen TcVI) [1]) is on record?
A: Its value is “no”.

Q: For `N#Cc1ccc(C(C(=O)N2CCN(c3ccc(C(F)(F)F)cn3)CC2)c2cccnc2)cc1` (centres unmarked) [compound 44], which “predicted human EH” value ([2]; Table 2) is on record?
A: Its value is 0.56.

Q: With `O=C(C(c1ccc(Cl)cc1)c1cccnc1)N1CCN(c2ccc(C(F)(F)F)cn2)CC1` (centres unmarked) [compound 43] as the molecule, how does the “predicted human EH” value ([2]; Table 2) read?
A: Its value is 0.70.

Q: What about the solubility (physchem) of the same molecule?
A: The solubility was 25 µg/mL (≈ 54.2 µM).

Q: With `N#Cc1ccc(C(c2cccnc2)N2CCC(NC(=O)c3c(F)cccc3F)CC2)cc1` (centres unmarked) [compound 4] as the molecule, how does the “parasites cleared” value (T. cruzi (Tulahuen TcVI) [1]) read?
A: Its value is “no”.

Q: Which “parasites cleared” value (T. cruzi (Tulahuen TcVI) [1]) does the source give for `N#Cc1ccc(C(O)(c2ccc(C(F)(F)F)cc2)c2cccnc2)c(F)c1` (centres unmarked) [compound 52] here?
A: The value was “yes”.

Q: And the IC50 [5]?
A: The IC50 was 2 nM.

Q: With `FC(F)(F)c1ccc(N(c2cccnc2)C2CCN(c3ccc(Cl)cc3)CC2)cc1` [compound 27] as the molecule, how does the “predicted human EH” value ([2]; Table 1) read?
A: The value was 0.65.

Q: What does the source list for `CC[C@@H]([C@H](C)O)n1ncn(-c2ccc(N3CCN(c4ccc(OC[C@@H]5CO[C@@](Cn6cncn6)(c6ccc(F)cc6F)C5)cc4)CC3)cc2)c1=O` [posaconazole, reference compound]?
A: parasites cleared from blood during 10-day dosing? (T. cruzi (Tulahuen TcVI) [1]): yes; mice cured (T. cruzi (Tulahuen TcVI) [6]; subchronic mouse model): ~60%; IC50 (in vitro): > 100000 nM; IC50 ([5]; read-out: Tc IC50): 0.7 nM

Q: Which “predicted human EH” value ([2]; Table 2) does the source give for `CS(=O)(=O)c1ccc(N2CCN(C(=O)C(c3ccc(C#N)cc3)c3cccnc3)CC2)cc1` (centres unmarked) [compound 46] here?
A: Its value is 0.46.

Q: For `Fc1cc(Cl)ccc1C(NC1CCN(c2ccc(C(F)(F)F)cc2)CC1)c1cccnc1` (centres unmarked) [compound 5], which “parasites cleared” value (T. cruzi (Tulahuen TcVI) [1]) is on record?
A: The value was “yes”.

Q: With `O=C(C(c1ccc(Cl)cc1)c1cccnc1)N1CCN(c2ccc(C(F)(F)F)cc2)CC1` (racemic) [(rac)-7, 2-(4-Chlorophenyl)-1-{4-[4-(trifluoromethyl)phenyl]piperazin-1-yl}-2-(pyridin-3-yl)ethanone] as the molecule, how does the “parasites cleared” value (T. cruzi (Tulahuen TcVI) [1]) read?
A: Its value is “yes”.

Q: And the “predicted human EH” value ([2]; Table 2)?
A: The value was 0.50.

Q: And the “cure by PCR analyses of organs and blood” value (T. cruzi (Tulahuen TcVI) [3]; 20 mg/kg daily oral)?
A: The value was “no cures were obtained”.

Q: What about the “mouse survival after infection, day 8” value (T. cruzi (Tulahuen TcVI) [3]; [9]) of the same molecule?
A: Its value is 5 of 5.

Q: What about the “mouse survival after infection, day 58” value (T. cruzi (Tulahuen TcVI) [3]; [10]) of the same molecule?
A: The value was 3 of 5.

Q: And the “mouse survival after infection, day 28” value (T. cruzi (Tulahuen TcVI) [3]; [11])?
A: Its value is 5 of 5.

Q: And the “mouse survival after infection, day 37” value (T. cruzi (Tulahuen TcVI) [3]; [12])?
A: Its value is 5 out of 5 and 5 of 5.

Q: And the “–ve PCR” value (T. cruzi (Tulahuen TcVI) [3]; [13])?
A: The value was 0 of 3.

Q: For `N#Cc1ccc(C(C(=O)N2CCN(c3ccc(C(F)(F)F)nc3)CC2)c2cccnc2)cc1` (centres unmarked) [compound 42], which “predicted human EH” value ([2]; Table 2) is on record?
A: The value was 0.56.

Q: With `CS(=O)(=O)c1ccc(N2CCC(N(c3ccc(C#N)cc3)c3cccnc3)CC2)cc1` [compound 33] as the molecule, how does the “predicted human EH” value ([2]; Table 1) read?
A: The value was 0.47.

Q: With `O=C(C(c1ccc(Cl)cc1)c1cccnc1)N1CCN(c2ccc(C(F)(F)F)nc2)CC1` (centres unmarked) [compound 41] as the molecule, how does the “predicted human EH” value ([2]; Table 2) read?
A: Its value is 0.77.

Q: Which parasitological cure (T. cruzi [7]) does the source give for `O=C(N[C@@H](Cn1ccnc1)c1ccc(Cl)cc1Cl)c1ccc(-c2nnc(-c3ccccc3)o2)cc1` [VNI] here?
A: The parasitological cure was “parasitological cure”.

Q: With `CS(=O)(=O)c1ccc(N2CCN(C(=O)C(c3ccc(Cl)cc3)c3cccnc3)CC2)cc1` (centres unmarked) [compound 45] as the molecule, how does the “predicted human EH” value ([2]; Table 2) read?
A: The value was 0.82.
